According to publication PMC3757929 (Molecular pharmaceutics, 2013):
Where two headings read alike, the source gives them in different places.

Legend:
[1] = biological target: T1, prostate specific membrane antigen (PSMA) (Homo sapiens, UniProt Q04609); experiment: competitive binding on LNCaP cells with […]-GPI radioligand; format: cell-based
[2] = biological target: T1, prostate specific membrane antigen (PSMA); experiment: as above; format: cell-based; remark: listed apart in the source

T1 sequence (Q04609 whole entry): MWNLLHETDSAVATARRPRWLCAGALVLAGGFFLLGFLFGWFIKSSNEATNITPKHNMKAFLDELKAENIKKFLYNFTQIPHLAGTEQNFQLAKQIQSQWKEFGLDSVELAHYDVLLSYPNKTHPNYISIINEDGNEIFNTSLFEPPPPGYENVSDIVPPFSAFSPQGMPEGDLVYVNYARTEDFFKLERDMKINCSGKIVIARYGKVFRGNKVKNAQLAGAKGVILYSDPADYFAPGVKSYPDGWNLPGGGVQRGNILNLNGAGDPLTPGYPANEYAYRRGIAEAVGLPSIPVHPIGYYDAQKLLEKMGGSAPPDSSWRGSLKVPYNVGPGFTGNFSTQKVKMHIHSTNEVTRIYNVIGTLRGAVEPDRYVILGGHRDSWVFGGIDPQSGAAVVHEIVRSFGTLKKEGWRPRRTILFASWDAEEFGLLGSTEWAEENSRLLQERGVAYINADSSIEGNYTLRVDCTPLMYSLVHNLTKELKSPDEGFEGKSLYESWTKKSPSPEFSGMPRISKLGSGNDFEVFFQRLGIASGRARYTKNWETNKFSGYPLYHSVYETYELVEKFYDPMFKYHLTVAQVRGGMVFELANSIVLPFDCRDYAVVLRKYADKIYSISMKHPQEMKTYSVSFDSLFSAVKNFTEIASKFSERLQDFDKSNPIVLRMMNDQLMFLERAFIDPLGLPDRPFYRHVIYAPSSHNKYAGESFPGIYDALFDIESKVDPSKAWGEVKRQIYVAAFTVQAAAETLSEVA

Row | IC50 [2] [nM] | SMILES | IC50 [1] [nM]
1 |  | O=C(O)CCC(CP(=O)(O)CCC(NC(=O)CCC(C(=O)O)N1CCCN2CCN(CCCN(C(CCC(=O)NC(CCP(=O)(O)CC(CCC(=O)O)C(=O)O)C(=O)O)C(=O)O)CC2)CC1)C(=O)O)C(=O)O (racemic) [H2CBT2G] | 129 ± 17
2 |  | O=C(O)CCC(CP(=O)(O)CCC(NC(=O)CCC(C(=O)O)N1CCCN2CCN(CCCN(CC(=O)O)CC2)CC1)C(=O)O)C(=O)O (racemic) [H2CBT1G] | 578 ± 81
3 | 460 ± 13 | NC(CCP(=O)(O)CC(CCC(=O)O)C(=O)O)C(=O)O (racemic) [GPI, 2[(3-amino-3-carboxypropyl)(hydroxy)(phosphinyl)-methyl]pentane-1,5-dioic acid] | 
